Measured values from the NIST ThermoML archive (doi:10.1016/j.fluid.2006.05.032).

Assay: xn = mol fraction of the nth substance listed
Conditions: Liquid, Vibrating tube method

Cc1ccccc1 [toluene] + CCCO
mass density [kg/m3]
Conditions | x2 = 0 | x2 = 0.125 | x2 = 0.25 | x2 = 0.375 | x2 = 0.5 | x2 = 0.625 | x2 = 0.75 | x2 = 0.875
293.15 K, 100 kPa | 867.1 | 860.6 | 854.5 | 848.1 | 841.2 | 833.5 | 825.1 | 815.3
293.15 K, 5000 kPa | 870.6 | 864.1 | 858.2 | 851.7 | 844.7 | 837 | 828.7 | 818.9
293.15 K, 10000 kPa | 874.2 | 867.7 | 861.7 | 855.1 | 848.4 | 840.6 | 832.3 | 822.6
293.15 K, 15000 kPa | 877.6 | 871.2 | 865.2 | 858.6 | 851.8 | 844.1 | 835.8 | 826.1
293.15 K, 20000 kPa | 881.1 | 874.5 | 868.5 | 861.9 | 855.1 | 847.4 | 839.2 | 829.4
293.15 K, 25000 kPa | 884.2 | 877.8 | 871.7 | 865.1 | 858.3 | 850.6 | 842.4 | 832.6
293.15 K, 30000 kPa | 887.3 | 880.9 | 874.9 | 868.3 | 861.5 | 853.7 | 845.4 | 835.7
293.15 K, 35000 kPa | 890.3 | 883.9 | 877.9 | 871.3 | 864.5 | 856.7 | 848.4 | 838.7
293.15 K, 40000 kPa | 893.3 | 886.9 | 880.9 | 874.2 | 867.4 | 859.7 | 851.3 | 841.7
293.15 K, 45000 kPa | 896.1 | 889.7 | 883.7 | 877.1 | 870.3 | 862.6 | 854.1 | 844.4
293.15 K, 50000 kPa | 898.9 | 892.5 | 886.5 | 879.9 | 873.1 | 865.3 | 856.9 | 847.2
293.15 K, 55000 kPa | 901.6 | 895.2 | 889.2 | 882.6 | 875.7 | 868 | 859.6 | 849.7
293.15 K, 60000 kPa | 904.2 | 897.9 | 891.8 | 885.2 | 878.3 | 870.6 | 862.1 | 852.3
293.15 K, 65000 kPa | 906.7 | 900.5 | 894.4 | 887.7 | 880.9 | 873.1 | 864.7 | 854.8
303.15 K, 100 kPa | 857.5 | 851.1 | 845 | 838.6 | 832 | 824.4 | 816.1 | 806.6
303.15 K, 5000 kPa | 861.4 | 855 | 848.9 | 842.4 | 835.9 | 828.3 | 820.1 | 810.6
303.15 K, 10000 kPa | 865.1 | 858.8 | 852.7 | 846.2 | 839.8 | 832.2 | 824 | 814.3
303.15 K, 15000 kPa | 869 | 862.4 | 856.4 | 849.9 | 843.4 | 835.8 | 827.8 | 818.3
303.15 K, 20000 kPa | 872.4 | 866 | 859.9 | 853.4 | 846.9 | 839.4 | 831.3 | 821.7
303.15 K, 25000 kPa | 875.8 | 869.4 | 863.3 | 856.8 | 850.4 | 842.8 | 834.6 | 825.2
303.15 K, 30000 kPa | 879 | 872.6 | 866.6 | 860.1 | 853.5 | 846 | 837.7 | 828.3
303.15 K, 35000 kPa | 882.1 | 875.8 | 869.8 | 863.3 | 856.7 | 849.2 | 840.8 | 831.4
303.15 K, 40000 kPa | 885.2 | 878.9 | 872.8 | 866.4 | 859.7 | 852.3 | 843.9 | 834.4
303.15 K, 45000 kPa | 888.2 | 881.8 | 875.6 | 869.3 | 862.6 | 855.1 | 846.9 | 837.3
303.15 K, 50000 kPa | 891.1 | 884.8 | 878.5 | 872.2 | 865.5 | 858 | 849.7 | 840.1
303.15 K, 55000 kPa | 894 | 887.6 | 881.4 | 875.1 | 868.6 | 860.9 | 852.5 | 843
303.15 K, 60000 kPa | 896.7 | 890.3 | 884.1 | 877.8 | 871.1 | 863.6 | 855.2 | 845.6
303.15 K, 65000 kPa | 899.2 | 893 | 886.7 | 880.4 | 873.7 | 866.1 | 857.8 | 848.2
313.15 K, 100 kPa | 847.8 | 841.3 | 835.1 | 829 | 822.4 | 815.2 | 807.3 | 797.9
313.15 K, 5000 kPa | 852 | 845.5 | 839.3 | 833.1 | 826.6 | 819.3 | 811.5 | 802.1
313.15 K, 10000 kPa | 856.1 | 849.6 | 843.4 | 837.2 | 830.7 | 823.4 | 815.5 | 806.2
313.15 K, 15000 kPa | 859.9 | 853.6 | 847.4 | 841.2 | 834.7 | 827.5 | 819.3 | 810
313.15 K, 20000 kPa | 863.5 | 857.3 | 851.1 | 844.9 | 838.4 | 831.2 | 823 | 813.6
313.15 K, 25000 kPa | 867.1 | 860.9 | 854.7 | 848.5 | 841.9 | 834.7 | 826.5 | 817.1
313.15 K, 30000 kPa | 870.5 | 864.3 | 858.1 | 851.9 | 845.4 | 838.1 | 829.9 | 820.5
313.15 K, 35000 kPa | 873.8 | 867.6 | 861.5 | 855.3 | 848.7 | 841.4 | 833.2 | 823.7
313.15 K, 40000 kPa | 877 | 870.8 | 864.7 | 858.4 | 851.9 | 844.6 | 836.4 | 826.9
313.15 K, 45000 kPa | 880.2 | 874 | 867.8 | 861.6 | 855 | 847.7 | 839.4 | 830
313.15 K, 50000 kPa | 883.3 | 876.9 | 870.8 | 864.5 | 857.9 | 850.6 | 842.5 | 833
313.15 K, 55000 kPa | 886.2 | 879.9 | 873.8 | 867.5 | 860.9 | 853.5 | 845.3 | 835.9
313.15 K, 60000 kPa | 889 | 882.7 | 876.6 | 870.4 | 863.7 | 856.3 | 848.2 | 838.7
313.15 K, 65000 kPa | 891.8 | 885.5 | 879.3 | 873.1 | 866.5 | 859.1 | 850.9 | 841.4
323.15 K, 100 kPa | 838.4 | 831.7 | 825.5 | 819.3 | 812.9 | 805.9 | 798.2 | 789.3
323.15 K, 5000 kPa | 842.7 | 836.2 | 829.9 | 823.8 | 817.3 | 810.3 | 802.6 | 793.6
323.15 K, 10000 kPa | 847 | 840.5 | 834.3 | 828 | 821.6 | 814.5 | 806.9 | 797.9
323.15 K, 15000 kPa | 851.1 | 844.5 | 838.4 | 832.2 | 825.8 | 818.7 | 810.9 | 801.8
323.15 K, 20000 kPa | 855 | 848.5 | 842.3 | 836.1 | 829.7 | 822.6 | 814.8 | 805.7
323.15 K, 25000 kPa | 858.9 | 852.2 | 846.1 | 839.9 | 833.5 | 826.3 | 818.6 | 809.5
323.15 K, 30000 kPa | 862.5 | 855.9 | 849.7 | 843.5 | 837.1 | 829.9 | 822.2 | 813
